Assay results from patent US11266715B2, “C3A receptor agonists for use against ischemic brain injury, stroke, traumatic brain injury, spinal cord injury and neurodegenerative disorders” (priority 2016, dated 2022).

Legend:
[1] = system: mice subjected to neonatal HI injury; test: Histomorphologic evaluation of hippocampus volume after neonatal HI; assay type: in vivo, mouse; settings: WT or C3aR−/− mice, regardless of treatment length, P51-55
Procedure: On P51 (long-term study) or P55 (short-term study), mice were deeply anesthetized with thiopental [Pentothal Sodium (0.01 ml/g body weight), Hospira, Ill., USA)] and transcardially perfused with 0.9% saline, followed by 4% paraformaldehyde (PFA) in 0.1 M PBS. Brains were removed and post-fixed in 4% PFA at 4° C. for 24 h followed by 70% ethanol for 24 h. Tissue was processed using an automatic tissue processor (SAKURA Tissue Tek VIP 3000, Tournai, Belgium) and embedded in paraffin. Brains were cut at room temperature into 8-μm serial coronal sections using a sliding microtome (Microm HM 450, Thermo Scientific, Massachusetts, USA), attached to silane coated slides and dried at RT.
For the histomorphologic evaluation, slides were incubated for 1 h at 65° C. and stained with haematoxylin and eosin. A wide-field microscope (Nikon Eclipse 80i; Nikon Instruments Inc., Tokyo, Japan) equipped with a color camera (Nikon DXM 1200F) was used to obtain images of brain sections 208 μm apart between −1.60 mm and −2.02 mm relative to Bregma; 3 sections/mouse. ImageJ 1.46r software was used to trace around the ipsilesional and contralesional hippocampus and hemisphere. Volumes were calculated according to the Cavalieri's principle, where V=ΣA×P×T (Svedin et al., 2007) and hippocampus volume/hemisphere volume ratio was calculated for each hemisphere.

[2] = system: WT mice subjected to photothrombotic stroke in the motor cortex; test: Grid walking task after photothrombotic stroke; assay type: in vivo, mouse
Procedure: Cortical photothrombosis was induced using the Rose Bengal method (Lee et al., 2007; Watson et al., 1985) with some modifications. Anesthesia was induced with isoflurane (Forene®, Abbott) in air and oxygen (1:1) initially at 5% and reduced to 2.5% during the surgical procedure. Body temperature was monitored by a rectal probe and maintained at 37° C. using a homeothermic control unit (Harvard Apparatus). Anesthetized mice were placed in a stereotaxic frame, the skull was exposed through a midline scalp incision and Rose Bengal (200 μl, 10 mg/ml solution in sterile saline, Sigma) was injected intraperitoneally. After 5 min, the skull and underlying brain tissue were illuminated for 12 min by a 2 mm diameter cold laser beam (50 mW, 561 nm; Cobolt AB) positioned at AP +0.5 mm and ML −2.7 mm relative to Bregma, targeting the border between left primary somatosensory and motor cortex (Porritt et al., 2012). For intervention experiments targeting motor cortex, stroke was induced as above with the following modifications: Transcranial illumination lasting 15 min was delivered using cold light source (LQ1600, Fiberoptic-Heim AG) equipped with 2 mm wide fiber optic probe and directed to AP +0 and ML −1.5 relative to Bregma. After illumination, the scalp was sutured and mice were placed in a warm cage for 45 min to recover from anesthesia prior to being returned to the home cage. Mice were provided with moist mashed food placed on the floor of the home cage and their weight was monitored daily for 7 days after surgery. There were no significant differences in body weight, body temperature (36.5±0.5° C.), duration of surgery, or post-stroke mortality between cohorts. Each cohort contained an even distribution of mice from the matched strains or treatment groups.
Purified human C3a peptide (Complement Technologies) was diluted in sterile phosphate buffered saline (PBS) to a concentration of 200 nM and a total of 20 μl (10 μl/nostril; corresponding to approximately 1.13 μg/kg body weight) of peptide solution or PBS was given intranasally to awake, hand-restrained mice held in a supine position. Solutions were administered through a pipette tip, drop-wise in 5 μl portions divided by 1 min intervals to allow for absorption. C3a or PBS was given every 24 hours on days 7 to 21 post-stroke for the short-term study or on days 7 to 28 post-stroke for the long-term study. Mice were assigned to C3a or PBS treatment using randomization stratified by body weight to avoid potential confounding effects of body weight on behavioural performance. The investigators carrying out behavioural studies and analysing data were blinded to treatment group. For the assessment of potential systemic anaphylactic response due to intranasal C3a inoculation, body temperature was monitored using a rectal temperature probe (Harvard Apparatus) inserted approximately 4 mm into the rectum of awake mice restrained by the scruff. Baseline temperature was taken before intranasal administration and 5, 15, 30, 45 and 75 min after C3a or PBS administration.
Functional impairment of mice treated intranasally with C3a or vehicle was assessed using a modified cylinder test and a grid walking task to closely evaluate forepaw function. Mice were tested once on each task one week before stroke induction to establish baseline performance. Next, they were tested on days 7, 14 and 21 (short-term study) or days 7, 14, 28, 42 and 56 (long-term study) post-stroke. […]

## C3a: Purified human C3a peptide (Complement Technologies), C3a receptor agonist, amino acid sequence SEQ ID NO: 1
[1]
  HI-induced loss of hippocampal tissue: did not affect HI-induced loss of hippocampal tissue
[2]; long-term study, C3a days 7-28, P=0.0097 and P=0.047, Mann-Whitney U test
  right foot faults vs PBS-treated mice at days 14 and 56 post-stroke: significantly fewer right foot faults
[2]; long-term study, Dunn's test P=0.103
  grid walking performance day 56 vs pre-stroke baseline: did not differ from pre-stroke baseline levels
[2]; long-term study, P=0.041 Dunn's test, P=0.039 Wilcoxon test
  foot faults day 14 vs day 7 post-stroke (first week of treatment): significant reduction in foot faults
[2]; short-term study, C3a days 7-21, P=0.0545 and P=0.0839, Dunnett's test
  right paw foot faults, days 14 and 21 vs day 7: tendency toward reduced number of right paw foot faults
[2]; short-term study, P<0.001, both groups
  grid walking performance vs baseline at all time points after stroke: significant impairment with respect to the baseline performance
